Measured values: ChEMBL document CHEMBL1201862, “PubChem BioAssay data set” (2004)
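Cells were grown in 96-well plates and exposed to each compound for 48 hours at five concentrations; endpoints were interpolated linearly between bracketing concentrations, or set to the highest concentration if not reached. Here, GI50 denotes the concentration required for 50% inhibition of growth.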 The source made the active and inactive calls. Rule as the data show it: active = GI50 up to about 1.1 µM and inactive = higher.

Legend:
Assay in all cases: NCI-60 cell line screen, 48 h
786-0 = test system: 786-0
ACHN = test system: ACHN
CCRF-CEM = test system: CCRF-CEM
EKVX = test system: EKVX
HOP-62 = test system: HOP-62
NCI-H226 = test system: NCI-H226
NCI-H522 = test system: NCI-H522
OVCAR-4 = test system: OVCAR-4
OVCAR-5 = test system: OVCAR-5
SF-295 = test system: SF-295
SK-MEL-5 = test system: SK-MEL-5
SK-OV-3 = test system: SK-OV-3
SNB-75 = test system: SNB-75
UACC-257 = test system: UACC-257
UACC-62 = test system: UACC-62
UO-31 = test system: UO-31
RPMI-8226 = test system: RPMI-8226

Measured: GI50

N=C(N)NS(=O)(=O)c1ccc(Nc2c3ccccc3nc3c(C(=O)N4CCN(CCO)CC4)cccc23)cc1
inactive: 786-0 > 100 µM | ACHN > 100 µM | CCRF-CEM > 100 µM | EKVX > 100 µM | HOP-62 > 100 µM | NCI-H226 > 100 µM | NCI-H522 > 100 µM | OVCAR-4 > 100 µM | OVCAR-5 > 100 µM | SF-295 > 100 µM | SK-MEL-5 > 100 µM | SK-OV-3 2.7 µM | SNB-75 > 100 µM | UACC-257 > 100 µM | UACC-62 > 100 µM | UO-31 > 100 µM

CCCCCCCCCCC/C(=N/O)c1ccc(O)c2ncccc12
inactive: 786-0 10.6 µM | ACHN 2.21 µM | EKVX 3.52 µM | HOP-62 4.26 µM | NCI-H226 3.22 µM | NCI-H522 2.31 µM | OVCAR-4 2.61 µM | OVCAR-5 3.15 µM | SF-295 2.71 µM | SK-MEL-5 1.85 µM | SNB-75 2.52 µM | UACC-257 3.25 µM | UO-31 2.8 µM

O=C1CNNC(Cn2nc(-c3ccccc3)c3ccccc3c2=O)=N1
inactive: 786-0 > 100 µM | ACHN > 100 µM | CCRF-CEM > 100 µM | HOP-62 > 100 µM | NCI-H226 > 100 µM | NCI-H522 > 100 µM | OVCAR-4 > 100 µM | OVCAR-5 > 100 µM | RPMI-8226 > 100 µM | SF-295 > 100 µM | SK-MEL-5 > 100 µM | SK-OV-3 > 100 µM | SNB-75 83 µM | UACC-257 > 100 µM | UACC-62 > 100 µM | UO-31 > 100 µM

CCOC(=O)C1Nc2ccccc2[C@H]2OCC[C@@H]12 (some centres not stated)
inactive: 786-0 > 100 µM | ACHN > 100 µM | CCRF-CEM > 100 µM | EKVX > 100 µM | HOP-62 > 100 µM | NCI-H226 > 100 µM | NCI-H522 > 100 µM | OVCAR-4 > 100 µM | OVCAR-5 > 100 µM | SF-295 > 100 µM | SK-MEL-5 > 100 µM | SK-OV-3 > 100 µM | SNB-75 > 100 µM | UACC-257 > 100 µM | UACC-62 > 100 µM

CSc1nc2c(nc(N)n2C2OCC(O)C(O)C2O)c(=O)n1C (configuration not stated)
inactive: 786-0 > 100 µM | ACHN > 100 µM | CCRF-CEM > 100 µM | EKVX > 100 µM | HOP-62 > 100 µM | NCI-H226 > 100 µM | NCI-H522 > 100 µM | OVCAR-4 > 100 µM | SF-295 > 100 µM | SK-MEL-5 > 100 µM | SK-OV-3 > 100 µM | SNB-75 > 100 µM | UACC-257 > 100 µM | UACC-62 > 100 µM | UO-31 > 100 µM

COc1ccc2nc3cc(Cl)ccc3c(NCCC(=O)OCC(O)C(O)C(O[C@H](C)C(=O)NC(C)C(=O)NC(CCC(N)=O)C(=O)OCc3ccccc3)C(C=O)NC(C)=O)c2c1 (some centres not stated)
inactive: 786-0 16.9 µM | ACHN 18.1 µM | CCRF-CEM 23.2 µM | EKVX 18.4 µM | HOP-62 16.1 µM | NCI-H226 22.5 µM | NCI-H522 14.5 µM | OVCAR-4 20 µM | OVCAR-5 23.8 µM | SF-295 18.2 µM | SK-MEL-5 16.6 µM | SK-OV-3 18.8 µM | SNB-75 16.1 µM | UACC-257 95.7 µM | UACC-62 17.9 µM | UO-31 20.5 µM

CCCCCCCC/C=C\CCCCCCCC(=O)NCCN(CCN)C(=O)CCCCCCC/C=C\CCCCCCCC
inactive: 786-0 > 100 µM | ACHN > 100 µM | CCRF-CEM > 100 µM | HOP-62 > 100 µM | NCI-H226 > 100 µM | OVCAR-4 > 100 µM | OVCAR-5 > 100 µM | RPMI-8226 > 100 µM | SF-295 > 100 µM | SK-MEL-5 > 100 µM | SK-OV-3 > 100 µM | UACC-257 > 100 µM | UACC-62 > 100 µM | UO-31 > 100 µM

COC(=O)CC(=O)C[P+](c1ccccc1)(c1ccccc1)c1ccccc1
inactive: 786-0 > 218 µM | ACHN > 218 µM | CCRF-CEM 55.3 µM | EKVX > 218 µM | HOP-62 > 218 µM | NCI-H226 180 µM | NCI-H522 37.7 µM | RPMI-8226 63.5 µM | SF-295 116 µM | SK-MEL-5 158 µM | SK-OV-3 > 218 µM | UACC-257 114 µM | UACC-62 178 µM

O=C1Nc2ccc(Br)cc2/C1=N/Nc1ccc([N+](=O)[O-])cc1
inactive: 786-0 11.4 µM | ACHN 18.5 µM | CCRF-CEM 33 µM | EKVX 23.9 µM | HOP-62 18.9 µM | NCI-H226 18 µM | NCI-H522 31.3 µM | OVCAR-4 17.3 µM | RPMI-8226 16.4 µM | SF-295 11.6 µM | SK-MEL-5 25 µM | SK-OV-3 19.5 µM | SNB-75 19.3 µM | UACC-257 20.3 µM | UACC-62 27.9 µM | UO-31 30.1 µM

O=C(Nc1cc(Cl)c(Cl)cc1Cl)C(=O)C(C(=O)c1ccc2ccccc2c1)C1OC(=O)c2ccccc21 (configuration not stated)
inactive: 786-0 8.11 µM | ACHN 16.7 µM | EKVX 15.4 µM | HOP-62 16.1 µM | NCI-H226 2.65 µM | NCI-H522 12 µM | OVCAR-4 > 10 µM | OVCAR-5 16.5 µM | RPMI-8226 11.9 µM | SF-295 6.59 µM | SK-MEL-5 11.8 µM | SK-OV-3 60.4 µM | UACC-257 14.4 µM | UACC-62 12.1 µM | UO-31 18 µM

COC(=O)CC(C(C(=O)OCc1ccccc1)C(C)O)N1C(=O)OC(c2ccccc2)C1c1ccccc1 (configuration not stated)
inactive: 786-0 > 100 µM | ACHN > 100 µM | CCRF-CEM > 100 µM | EKVX > 100 µM | HOP-62 > 100 µM | NCI-H226 > 100 µM | OVCAR-4 > 100 µM | RPMI-8226 62.7 µM | SF-295 64.6 µM | SK-MEL-5 74 µM | UACC-257 > 100 µM | UACC-62 52 µM | UO-31 48.9 µM

CCCCNC(=O)C1C2CCC(O2)C1C(=O)O (configuration not stated)
inactive: 786-0 16.1 µM | ACHN 22.6 µM | EKVX 13.7 µM | HOP-62 34.7 µM | NCI-H226 19 µM | NCI-H522 18.9 µM | OVCAR-4 29.6 µM | OVCAR-5 > 100 µM | RPMI-8226 20.9 µM | SF-295 23.1 µM | SK-MEL-5 20.2 µM | SK-OV-3 23.1 µM | SNB-75 16.8 µM | UACC-257 22.8 µM | UACC-62 17.5 µM | UO-31 64.6 µM

O=C(O)CCSCCCN1C(=O)c2ccccc2C1=O
inactive: 786-0 > 100 µM | ACHN > 100 µM | EKVX > 100 µM | NCI-H226 > 100 µM | OVCAR-4 > 100 µM | OVCAR-5 > 100 µM | RPMI-8226 > 100 µM | SF-295 > 100 µM | SK-MEL-5 > 100 µM | SK-OV-3 > 100 µM | SNB-75 > 100 µM | UACC-257 > 100 µM | UACC-62 > 100 µM | UO-31 > 100 µM
